Experiments:
[1] = test system: Human immunodeficiency virus 1; experiment: Antiviral activity against HIV1 3B harboring wild type RT infected in MT4 cells assessed as inhibition of virus-induced cytopathic effect after 5 days by MTT assay; format: functional, organism-based; conditions: Human immunodeficiency virus 1, 3B, MT4, 120 h
[2] = Cytotoxicity against human MT4 cells after 5 days by MTT assay; format: cell-based
[3] = Selectivity index ratio of CC50 for human MT4 cells to EC50 for HIV1 3B; format: toxicity, cell-based; conditions: read-out: Ratio CC50/EC50
[4] = test system: Human immunodeficiency virus 1; experiment: Antiviral activity against HIV1 RES056 harboring K103N/Y181C RT mutant infected in MT4 cells assessed as inhibition of virus-induced cytopathic effect after 5 days by MTT assay; format: functional, organism-based; conditions: Human immunodeficiency virus 1, RES056, MT4, 120 h
[5] = test system: Human immunodeficiency virus 2; experiment: Antiviral activity against HIV2 ROD […] infected in MT4 cells assessed as inhibition of virus-induced cytopathic effect after 5 days by MTT assay; format: functional, organism-based; conditions: Human immunodeficiency virus 2, ISOLATE ROD, MT4, 120 h
[6] = biological target: Human immunodeficiency virus type 1 reverse transcriptase (Human immunodeficiency virus 1, UniProt Q72547); experiment: Inhibition of HIV1 wildtype reverse transcriptase using poly(rA)/oligo(dT)15 as template by colometric streptavidin alkaline phosphate reporter assay

Work on `N#Cc1ccc(Nc2nccc([C@H](O)c3ccccc3Cl)n2)cc1` yielded an EC50 [1] of 0.005 µM, a CC50 at 120 h [2] of 36 µM and a selectivity ratio [3] of 6800. For the same molecule, the EC50 [4] was > 36 µM and the EC50 [5] was > 36 µM.
`N#Cc1ccc(Nc2nccc([C@@H](O)c3ccccc3Cl)n2)cc1` showed an EC50 [1] of 0.065 µM, a CC50 at 120 h [2] of 25 µM and a selectivity ratio [3] of 373. It also gave an EC50 [4] of 8.8 µM and an EC50 [5] of 11 µM.
Work on `N#Cc1ccc(Nc2nccc(C(O)c3ccccc3Cl)n2)cc1` (racemic) yielded a CC50 at 120 h [2] of 29 µM, a selectivity ratio [3] of 3230 and an EC50 [4] of 9.4 µM. It also gave an EC50 [5] of 7.6 µM and an IC50 [6] of 0.45 µM.
In the case of `CC(C)Nc1cccnc1N1CCN(C(=O)c2cc3cc(NS(C)(=O)=O)ccc3[nH]2)CC1` [DELAVIRDINE], the CC50 at 120 h [2] is reported as > 4.4 µM, the selectivity ratio [3] is reported as > 274 and the EC50 [4] is reported as > 4.39 µM.
In the case of `O=C1Nc2ccc(Cl)cc2[C@@](C#CC2CC2)(C(F)(F)F)O1` [EFAVIRENZ], the CC50 at 120 h [2] is reported as > 6.3 µM and the EC50 [4] is reported as 0.44 µM.
In the case of `Cc1cc(C#N)cc(C)c1Oc1nc(Nc2ccc(C#N)cc2)nc(N)c1Br` [ETRAVIRINE], the EC50 [1] is reported as 0.002 µM, the CC50 at 120 h [2] is reported as 28 µM and the EC50 [5] is reported as > 28 µM.
For `Cc1ccnc2c1NC(=O)c1cccnc1N2C1CC1` [NEVIRAPINE], the CC50 at 120 h [2] was > 15 µM and the EC50 [5] was > 15 µM.
In the case of `Cc1cn([C@H]2C[C@H](N=[N+]=[N-])[C@@H](CO)O2)c(=O)[nH]c1=O` [ZIDOVUDINE], the CC50 at 120 h [2] is reported as ≥ 46 µM, the selectivity ratio [3] is reported as ≥ 6360 and the EC50 [5] is reported as 0.007 µM.

From ChEMBL document CHEMBL2034878, “Chiral resolution, absolute configuration assignment and biological activity of racemic diarylpyrimidine CH(OH)-DAPY as potent nonnucleoside HIV-1 reverse transcriptase inhibitors” (Eur J Med Chem, 2012)
